Laboratory results as given in article PMC9508125, “The evolutionary advantage of an aromatic clamp in plant family 3 glycoside exo-hydrolases” (Nature Communications, 2022).
Changes are numbered by the printed parent chain.

Assays:
Test in all cases: Steady-state apparent kinetic constants with substrates
Type in all cases: biochemical
HvExoI W434A mutant = target: T1, HvExoI W434A mutant (Hordeum vulgare, UniProt Q9XEI3, W459A)
T1 sequence (Q9XEI3 26-630 W459A): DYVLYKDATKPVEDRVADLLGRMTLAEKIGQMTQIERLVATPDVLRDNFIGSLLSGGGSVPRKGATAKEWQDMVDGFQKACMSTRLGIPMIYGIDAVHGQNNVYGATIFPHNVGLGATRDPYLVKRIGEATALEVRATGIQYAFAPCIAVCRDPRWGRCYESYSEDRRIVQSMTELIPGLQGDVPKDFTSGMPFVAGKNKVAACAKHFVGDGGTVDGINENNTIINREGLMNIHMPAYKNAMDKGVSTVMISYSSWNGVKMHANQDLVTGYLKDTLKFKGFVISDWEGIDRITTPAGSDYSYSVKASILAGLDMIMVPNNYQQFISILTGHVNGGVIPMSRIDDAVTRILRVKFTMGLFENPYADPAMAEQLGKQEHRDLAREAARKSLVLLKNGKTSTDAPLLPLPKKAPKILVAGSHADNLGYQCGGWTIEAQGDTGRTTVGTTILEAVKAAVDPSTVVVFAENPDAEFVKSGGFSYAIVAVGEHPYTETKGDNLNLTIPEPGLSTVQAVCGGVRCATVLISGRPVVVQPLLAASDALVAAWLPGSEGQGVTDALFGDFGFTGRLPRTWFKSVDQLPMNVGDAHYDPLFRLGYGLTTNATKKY
Method: (§1) Dependency of activities of WT and mutant HvExoI on pH (McIlvaine buffers in the pH range of 3.5–8.5 at 30 °C) and temperature (100 mM sodium acetate buffer, pH 5.25, temperature range 0–80 °C, 15 min incubations) were determined using 0.2% (w/v) 4NP-Glc[21],[59]. Relative rates of hydrolysis of β-linked poly-, oligosaccharides, and aryl-glucosides were determined using near-homogenous HvExoI at 50 pmoles. […] Kinetic parameters were calculated from the analyses of Michaelis-Menten plots with Grafit 7.0.3[62] and processed by a proportional weighted fit, using nonlinear regression. The relative rates of hydrolysis, kinetic, and inhibition data were rounded to one or two decimal points (Supplementary Tables 2–4).

HvExoI W286Y mutant = target: T2, HvExoI W286Y mutant (Hordeum vulgare, UniProt Q9XEI3, W311Y); conditions: substance is the substrate
T2 sequence (Q9XEI3 26-630 W311Y): T1 sequence (Q9XEI3 26-630 W459A) with W286Y, A434W
Method: as §1

HvExoI W434F mutant = target: T3, HvExoI W434F mutant (Hordeum vulgare, UniProt Q9XEI3, W459F); conditions: substance is the substrate
T3 sequence (Q9XEI3 26-630 W459F): T1 sequence (Q9XEI3 26-630 W459A) with A434F
Method: as §1

[1] = target: T4, HvExoI W286F/W434F mutant (Hordeum vulgare, UniProt Q9XEI3, W311F/W459F); conditions: substance is the substrate
T4 sequence (Q9XEI3 26-630 W311F/W459F): T1 sequence (Q9XEI3 26-630 W459A) with W286F, A434F
Method: as §1

Question: Which “fold decrease of kcat compared to WT” value (HvExoI W434A mutant) does the source give for `OC[C@H]1O[C@@H](O[C@H]2[C@H](O)[C@@H](CO)OC(O)[C@@H]2O)[C@H](O)[C@@H](O)[C@@H]1O` (stereo partly drawn) [Laminaribiose] here?
Answer: Its value is “about 21 fold”.

Question: Which results are given for laminarin?
Answer: Km (HvExoI W286Y mutant): 100 ± 10 µM; kcat (HvExoI W286Y mutant): 30.3 ± 2.4 s⁻¹; Km (HvExoI W434F mutant): 200 ± 10 µM; kcat (HvExoI W434F mutant): 8.0 ± 0.7 s⁻¹; kcat [1]: 0.4 ± 0.1 s⁻¹
